Reference: PMC7413254 (Nature Communications, 2020)
Several values for one entry are separate records, joined by “and”; a condition that tells them apart may be missing. Equal entries are not always repeated. Where two headings read alike, the source gives them in different places.

Columns and labels:
PfCRT^Ecu1110 [1] = target: T1, PfCRT^Ecu1110 (Plasmodium falciparum, UniProt Q9N623, A220S/I356L/K76T/N326D); test: cell-based; format: cell-based; settings: for Trans-stimulation data: total [3H]CQ transport / PfCRT-mediated [3H]CQ transport, trans-stimulation (% PfCRTEcu1110 control): PfCRTEcu1110 oocytes; for Trans-stimulation data: total [3H]CQ transport / Trans-stimulation: total [3H]CQ transport, PfCRTEcu1110 oocytes: footnote b: highest intracellular concentration tested was 30 mM (solubility); for Trans-stimulation data: total [3H]CQ transport: normalised to the oocyte type control (control = 100); for Trans-stimulation: total [3H]CQ transport, PfCRTEcu1110 oocytes: mean ± SEM, SEM
T1 sequence (Q9N623 whole entry A220S/I356L/K76T/N326D): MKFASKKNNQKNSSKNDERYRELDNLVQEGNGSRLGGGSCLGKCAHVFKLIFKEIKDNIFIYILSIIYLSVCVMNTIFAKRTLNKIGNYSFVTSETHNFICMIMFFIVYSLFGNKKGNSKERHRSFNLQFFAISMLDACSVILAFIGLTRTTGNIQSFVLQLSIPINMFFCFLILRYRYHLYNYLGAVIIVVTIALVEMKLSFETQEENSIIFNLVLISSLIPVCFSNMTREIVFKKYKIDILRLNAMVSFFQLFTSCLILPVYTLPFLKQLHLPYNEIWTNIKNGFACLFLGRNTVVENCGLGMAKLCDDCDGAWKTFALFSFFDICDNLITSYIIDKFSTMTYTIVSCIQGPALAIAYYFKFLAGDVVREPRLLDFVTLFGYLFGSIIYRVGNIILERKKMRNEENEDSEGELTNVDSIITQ
Outline: (§1)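 Transport measured in Xenopus oocytes expressing the transporters, 1.5 h at 27.5 °C in ND96 pH 5.5 unless noted. For trans-stimulation, VF-6 injected in 25 nL ND96 at pH 5.0–7.0 or Na^+-free (choline) buffer; intracellular levels based on ~400 nL oocyte volume. Ten oocytes per treatment, ≥4 experiments.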

PfCRT^Dd2 [2] = target: T2, PfCRT^Dd2 (Plasmodium falciparum, UniProt Q9N623, A220S/I356T/K76T/M74I/N326S/N75E/Q271E/R371I); test: cell-based; format: cell-based; settings: for Trans-stimulation data: total [3H]CQ transport / PfCRT-mediated [3H]CQ transport, trans-stimulation (% PfCRTDd2 control): PfCRTDd2 oocytes; for Trans-stimulation data: total [3H]CQ transport / Trans-stimulation: total [3H]CQ transport, PfCRTDd2 oocytes: footnote b: highest intracellular concentration tested was 30 mM (solubility); for Trans-stimulation data: total [3H]CQ transport: normalised to the oocyte type control (control = 100); for PfCRT-mediated [3H]CQ transport, trans-stimulation by injected solute, PfCRTDd2: background subtracted; for Trans-stimulation: total [3H]CQ transport, PfCRTDd2 oocytes: mean ± SEM, SEM
T2 sequence (Q9N623 whole entry A220S/I356T/K76T/M74I/N326S/N75E/Q271E/R371I): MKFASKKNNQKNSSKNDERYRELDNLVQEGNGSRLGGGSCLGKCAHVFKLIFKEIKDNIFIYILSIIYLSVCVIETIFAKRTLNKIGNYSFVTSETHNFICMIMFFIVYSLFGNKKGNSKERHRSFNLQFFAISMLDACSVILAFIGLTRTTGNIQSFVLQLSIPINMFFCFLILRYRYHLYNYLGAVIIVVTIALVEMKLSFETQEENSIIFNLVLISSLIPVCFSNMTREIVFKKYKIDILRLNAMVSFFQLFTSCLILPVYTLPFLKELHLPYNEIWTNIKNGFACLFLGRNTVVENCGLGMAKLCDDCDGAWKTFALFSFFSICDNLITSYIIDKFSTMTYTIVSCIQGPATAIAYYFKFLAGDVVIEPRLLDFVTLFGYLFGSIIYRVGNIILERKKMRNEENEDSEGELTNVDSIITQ
Outline: as §1

PfCRT^3D7 [3] = target: T3, PfCRT^3D7 (Plasmodium falciparum, UniProt Q8IBZ9); test: cell-based; format: cell-based; settings: for Trans-stimulation data: total [3H]CQ transport / PfCRT-mediated [3H]CQ transport, trans-stimulation (% PfCRT3D7 control): PfCRT3D7 oocytes; for Trans-stimulation data: total [3H]CQ transport / Trans-stimulation: total [3H]CQ transport, PfCRT3D7 oocytes: footnote b: highest intracellular concentration tested was 30 mM (solubility); for Trans-stimulation data: total [3H]CQ transport: normalised to the oocyte type control (control = 100); for Trans-stimulation: total [3H]CQ transport, PfCRT3D7 oocytes: mean ± SEM, SEM
T3 sequence (Q8IBZ9 59-398): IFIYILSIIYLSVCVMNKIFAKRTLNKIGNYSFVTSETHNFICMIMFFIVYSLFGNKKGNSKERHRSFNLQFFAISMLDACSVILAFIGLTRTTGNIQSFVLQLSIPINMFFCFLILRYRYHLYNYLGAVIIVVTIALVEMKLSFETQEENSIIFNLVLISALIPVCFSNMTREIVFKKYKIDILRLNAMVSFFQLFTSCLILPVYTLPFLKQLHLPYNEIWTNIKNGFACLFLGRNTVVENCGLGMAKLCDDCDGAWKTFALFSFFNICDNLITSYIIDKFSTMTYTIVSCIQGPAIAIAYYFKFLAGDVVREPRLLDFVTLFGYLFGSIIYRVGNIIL
Outline: as §1

PfNT1 = target: T4, PfNT1 (Plasmodium falciparum, UniProt Q8IDM6); test: cell-based; format: cell-based; settings: for Trans-stimulation data: total [3H]CQ transport: PfNT1 oocytes, normalised to the oocyte type control (control = 100); for Trans-stimulation data: total [3H]CQ transport / Trans-stimulation: total [3H]CQ transport, PfNT1 oocytes: footnote b: highest intracellular concentration tested was 30 mM (solubility); for Trans-stimulation: total [3H]CQ transport, PfNT1 oocytes: mean ± SEM, SEM
T4 construct: expressed in transfected cells; host or cells: Xenopus laevis oocytes (stage V-VI), cRNA-injected
T4 sequence (Q8IDM6 whole entry): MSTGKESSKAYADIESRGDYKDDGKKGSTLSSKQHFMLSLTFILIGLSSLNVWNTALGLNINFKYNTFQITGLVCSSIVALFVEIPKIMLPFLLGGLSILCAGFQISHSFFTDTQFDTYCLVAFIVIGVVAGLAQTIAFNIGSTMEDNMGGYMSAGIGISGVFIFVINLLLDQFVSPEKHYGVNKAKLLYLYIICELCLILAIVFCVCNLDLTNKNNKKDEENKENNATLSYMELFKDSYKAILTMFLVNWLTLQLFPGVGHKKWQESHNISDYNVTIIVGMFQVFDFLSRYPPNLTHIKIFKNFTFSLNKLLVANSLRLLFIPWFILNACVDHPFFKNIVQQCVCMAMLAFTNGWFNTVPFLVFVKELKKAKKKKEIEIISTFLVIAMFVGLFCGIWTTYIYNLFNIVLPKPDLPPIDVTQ
Outline: as §1

non-expressing oocytes [4] = format: cell-based, Xenopus laevis; settings: for Trans-stimulation: total [3H]CQ transport, non-expressing oocytes / Trans-stimulation data: total [3H]CQ transport: footnote b: highest intracellular concentration tested was 30 mM (solubility); for Trans-stimulation: total [3H]CQ transport, non-expressing oocytes: mean ± SEM, SEM; for Trans-stimulation data: total [3H]CQ transport: non-expressing oocytes, normalised to the oocyte type control (control = 100)
Protocol: (§2) Unless specified otherwise, the transport assays were conducted over 1.5 h at 27.5 °C and the reaction buffer was ND96 (96 mM NaCl, 2 mM KCl, 1 mM MgCl2, 1.8 mM CaCl2, 10 mM MES and 10 mM Tris-base) at pH 5.5.
The intracellular concentrations were calculated using previous estimates of the volume of stage V–VI oocytes (~400 nL[60]). […] The oocytes were injected with VF-6 suspended in 25 nL ND96 buffer adjusted to pH 5.0, 5.5, 6.0 or 7.0, which corresponded to the injection of 2.5–250 fmol of H^+. The Na^+-dependence of the trans-stimulatory effect of VF-6 was assessed by injecting the oocytes with VF-6 suspended in ND96 buffer (pH 5.5) or a Na^+-free version of this buffer (the Na^+ was replaced with choline).
(§3) At least four independent experiments were performed (on different days and using oocytes from different frogs), and within each experiment measurements were made from ten oocytes per treatment.

PfCRT^3D7 [5] = target: T3, PfCRT^3D7; test: cell-based; format: cell-based
Description: (§4) The orientation of PfCRT in the parasite’s DV membrane, and also in the oocyte plasma membrane, is such that its N- and C-termini extend into the cytosol. The oocytes were suspended in a reaction buffer adjusted to pH 5.5 to mimic the pH of the DV lumen[1],[2]. In this scenario, the transport of a substrate via PfCRT from the acidic extracellular solution into the oocyte cytosol[15] is analogous to the parasite’s PfCRT-mediated efflux of a substrate from the acidic DV and into the cytosol. Unless specified otherwise, this is the direction in which substrate transport was measured in the oocyte assays.
as §2
(§5) Ten oocytes were washed twice with the relevant ND96 buffer. […] The assay was terminated by removing the reaction buffer and washing the oocytes with ice-cold ND96 buffer. The oocytes were lysed in 10% (w/v) sodium dodecyl sulfate (SDS) and the radioactivity accumulated within each oocyte was measured with a MicroBeta^2 microplate liquid scintillation analyser (PerkinElmer).
as §3

non-expressing oocytes [6] = test: cells; format: cell-based, Xenopus laevis
Description: as §4, §2, §5, §3

PfCRT^Ecu1110 [7] = target: T1, PfCRT^Ecu1110; test: [3H]CQ uptake into Xenopus oocytes, cis-inhibition by unlabelled solute; format: cell-based; settings: PfCRTEcu1110 oocytes, background [3H]CQ accumulation subtracted, normalised to oocyte type control
Outline: (§6)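 Radioactivity accumulated per oocyte, read by liquid scintillation after 10% SDS lysis, served as the uptake measure. Incubations ran 1.5 h at 27.5 °C in ND96 at pH 5.5, matching digestive-vacuole acidity.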

PfCRT^Dd2 [8] = target: T2, PfCRT^Dd2; test: as above; format: cell-based; settings: PfCRTDd2 oocytes, background [3H]CQ accumulation subtracted, normalised to oocyte type control
Outline: as §6

[9] = trans-stimulation, footnote b: due to solubility the highest intracellular concentration tested was 30 mM, normalised to the oocyte type control = 100
[10] = footnote b: due to solubility the highest intracellular concentration tested was 30 mM
[11] = [test solute]i = 5 mM (intracellular), normalised to oocyte type control
[12] = cell marked b: highest intracellular concentration tested was 30 mM due to solubility

VEPSDTIENVK [VK-11]
Trans-stimulation data: total [3H]CQ transport (PfCRT^Ecu1110 [1]): 131 ± 2.1b | Trans-stimulation: total [3H]CQ transport, PfCRTEcu1110 oocytes (PfCRT^Ecu1110 [1]): 42 ± 2.1b % of PfCRTDd2 control | Trans-stimulation data: PfCRT-mediated [3H]CQ transport (PfCRT^Ecu1110 [1]; [9]): 127 ± 1.9b | Trans-stimulation data: total [3H]CQ transport (PfCRT^Dd2 [2]): 98 ± 3.8b | PfCRT-mediated [3H]CQ transport, trans-stimulation by injected solute, PfCRTDd2 (PfCRT^Dd2 [2]; [10]): 96 ± 2.1b % of PfCRTDd2 control | Trans-stimulation: total [3H]CQ transport, PfCRTDd2 oocytes (PfCRT^Dd2 [2]): 98 ± 3.8b % of PfCRTDd2 control | Trans-stimulation data: PfCRT-mediated [3H]CQ transport (PfCRT^Dd2 [2]; [9]): 96 ± 2.1b | Trans-stimulation data: PfCRT-mediated [3H]CQ transport (PfCRT^3D7 [3]; 2nd of 6 trans-stimulation columns, footnote b: due to solubility the highest intracellular concentration tested was 30 mM, normalised to the oocyte type control = 100): 158 ± 1.9b | Trans-stimulation data: total [3H]CQ transport (PfCRT^3D7 [3]): 163 ± 3.2b | Trans-stimulation: total [3H]CQ transport, PfCRT3D7 oocytes (PfCRT^3D7 [3]): 15 ± 0.3b % of PfCRTDd2 control | Trans-stimulation data: total [3H]CQ transport (PfNT1): 98 ± 3.3b | Trans-stimulation: total [3H]CQ transport, PfNT1 oocytes (PfNT1): 2.7 ± 0.03b % of PfCRTDd2 control | Trans-stimulation: total [3H]CQ transport, non-expressing oocytes (non-expressing oocytes [4]): 3.1 ± 0.08b % of PfCRTDd2 control | Trans-stimulation data: total [3H]CQ transport (non-expressing oocytes [4]): 98 ± 2.5b

O=C(O)CCC(=O)O [Succinate]
Cis-inhibition data: total [3H]CQ transport, normalised to the oocyte type control (PfCRT^3D7 [5]): 100 ± 9.7 and 100 ± 3.8 and 99 ± 3.7 | Total [3H]CQ transport, cis-inhibition by solute (PfCRT^3D7 [5]): 4.2 ± 0.03 and 3.6 ± 0.06 and 3.9 ± 0.1 | PfCRT-mediated [3H]CQ transport, trans-stimulation by injected solute, PfCRT3D7 (PfCRT^3D7 [3]): 0.8 ± 0.04 and 0.6 ± 0.02 | Total [3H]CQ transport, trans-stimulation by injected solute (PfCRT^3D7 [3]): 3.8 ± 0.1 and 3.6 ± 0.03 | Trans-stimulation data: PfCRT-mediated [3H]CQ transport (PfCRT^3D7 [3]): 99 ± 3.9 and 96 ± 4.0 | Trans-stimulation data: total [3H]CQ transport, normalised to the oocyte type control (PfCRT^3D7 [3]): 101 ± 2.7 and 98 ± 3.7 | Total [3H]CQ transport, trans-stimulation by injected solute (PfNT1): 2.6 ± 0.04 and 3.3 ± 0.08 | Trans-stimulation data: total [3H]CQ transport, normalised to the oocyte type control (PfNT1): 101 ± 3.7 and 98 ± 3.0 | Total [3H]CQ transport, trans-stimulation by injected solute (non-expressing oocytes [4]): 3.1 ± 0.03 and 2.2 ± 0.05 | Trans-stimulation data: total [3H]CQ transport, normalised to the oocyte type control (non-expressing oocytes [4]): 100 ± 3.7 and 99 ± 3.3 | Cis-inhibition data: total [3H]CQ transport, normalised to the oocyte type control (non-expressing oocytes [6]): 101 ± 4.7 and 101 ± 5.3 and 100 ± 5.3 | Total [3H]CQ transport, cis-inhibition by solute (non-expressing oocytes [6]): 2.4 ± 0.06 and 2.8 ± 0.03 and 2.2 ± 0.06

YFPHFDLS [YS-8]
PfCRT-mediated [3H]CQ transport, cis-inhibition (% PfCRTEcu1110 control) (PfCRT^Ecu1110 [7]; [test solute] = 0.5 mM): 43 ± 3.2 % PfCRTEcu1110 control | PfCRT-mediated [3H]CQ transport, cis-inhibition (% PfCRTEcu1110 control) (PfCRT^Ecu1110 [7]; [test solute] = 1 mM): 33 ± 2.6 % PfCRTEcu1110 control | PfCRT-mediated [3H]CQ transport, cis-inhibition (% PfCRTEcu1110 control) (PfCRT^Ecu1110 [7]; [test solute] = 2 mM): 25 ± 1.5 % PfCRTEcu1110 control | PfCRT-mediated [3H]CQ transport, cis-inhibition (% PfCRTDd2 control) (PfCRT^Dd2 [8]; [test solute] = 0.5 mM): 38 ± 2.7 % PfCRTDd2 control | PfCRT-mediated [3H]CQ transport, cis-inhibition (% PfCRTDd2 control) (PfCRT^Dd2 [8]; [test solute] = 1 mM): 28 ± 0.5 % PfCRTDd2 control | PfCRT-mediated [3H]CQ transport, cis-inhibition (% PfCRTDd2 control) (PfCRT^Dd2 [8]; [test solute] = 2 mM): 17 ± 0.1 % PfCRTDd2 control | Trans-stimulation data: total [3H]CQ transport (PfCRT^Ecu1110 [1]): 99 ± 3.8b | PfCRT-mediated [3H]CQ transport, trans-stimulation (% PfCRTEcu1110 control) (PfCRT^Ecu1110 [1]; [11]): 98 ± 3.1 % PfCRTEcu1110 control | PfCRT-mediated [3H]CQ transport, trans-stimulation (% PfCRTEcu1110 control) (PfCRT^Ecu1110 [1]; [12]): 97 ± 1.5b % PfCRTEcu1110 control | Trans-stimulation: total [3H]CQ transport, PfCRTEcu1110 oocytes (PfCRT^Ecu1110 [1]): 32 ± 1.9b % of PfCRTDd2 control | Trans-stimulation data: total [3H]CQ transport (PfCRT^Dd2 [2]): 99 ± 2.8b | PfCRT-mediated [3H]CQ transport, trans-stimulation (% PfCRTDd2 control) (PfCRT^Dd2 [2]; [11]): 98 ± 1.1 % PfCRTDd2 control | PfCRT-mediated [3H]CQ transport, trans-stimulation (% PfCRTDd2 control) (PfCRT^Dd2 [2]; [12]): 97 ± 1.7b % PfCRTDd2 control | PfCRT-mediated [3H]CQ transport, trans-stimulation by injected solute, PfCRTDd2 (PfCRT^Dd2 [2]; [10]): 97 ± 1.7b % of PfCRTDd2 control | Trans-stimulation: total [3H]CQ transport, PfCRTDd2 oocytes (PfCRT^Dd2 [2]): 99 ± 2.8b % of PfCRTDd2 control | Trans-stimulation data: total [3H]CQ transport (PfCRT^3D7 [3]): 100 ± 3.5b | PfCRT-mediated [3H]CQ transport, trans-stimulation (% PfCRT3D7 control) (PfCRT^3D7 [3]; [11]): 96 ± 2.8 % PfCRT3D7 control | PfCRT-mediated [3H]CQ transport, trans-stimulation (% PfCRT3D7 control) (PfCRT^3D7 [3]; [12]): 98 ± 2.8b % PfCRT3D7 control | Trans-stimulation: total [3H]CQ transport, PfCRT3D7 oocytes (PfCRT^3D7 [3]): 3.1 ± 0.04b % of PfCRTDd2 control | Trans-stimulation data: total [3H]CQ transport (PfNT1): 98 ± 3.5b | Trans-stimulation: total [3H]CQ transport, PfNT1 oocytes (PfNT1): 3.3 ± 0.08b % of PfCRTDd2 control | Trans-stimulation: total [3H]CQ transport, non-expressing oocytes (non-expressing oocytes [4]): 2.8 ± 0.05b % of PfCRTDd2 control | Trans-stimulation data: total [3H]CQ transport (non-expressing oocytes [4]): 100 ± 2.8b
